These results are taken from ChEMBL document CHEMBL4342426, “Structure-activity relationship of 4-azaindole-2-piperidine derivatives as agents against Trypanosoma cruzi” (Bioorg Med Chem Lett, 2020).

Bounds are passed on as bounds.

The IC50 is the point on the concentration scale where inhibition reaches its midpoint. A low value points to inhibition by little substance. By IC90 is commonly meant the concentration at which the effect reaches the 90% level. A low value points to greater potency. One may read the CLint scaled as the capacity of the preparation to metabolise the compound, expressed as a volume cleared per time. A low value points to slow turnover. As a reminder, the microsomal CLint is the capacity of the preparation to metabolise the compound, expressed as a volume cleared per time. A lower microsomal CLint goes with greater metabolic stability. As a reminder, the logD is lipophilicity at a set pH, counting ionised and neutral species. Higher therefore signals a more lipophilic compound. One may read the Papp as the rate of passage across a membrane or cell layer, normalised by area and donor concentration. A lower Papp goes with slow passage.

Data set [1] can be described thus: cells. To be noted: Homo sapiens, MRC-5 SV2, 72 h.
Description: (§1) Cytotoxicity against human MRC5 SV2 cells assessed as reduction in cell viability incubated for 3 days by fluorimetry
The test system of data set [2] is Macrophage. Kind of data set: cells. The note with it: Mus musculus, 72 h.
Description: (§2) Cytotoxicity against mouse peritoneal Macrophage cells assessed as reduction in cell viability incubated for 3 days by fluorimetry
A short description of data set [3]: in vitro. To be noted: human, MRC5 SV2 cells.
Description: as §1
Data set [4] is described as follows: in vitro. To be noted: human, liver microsomes. (In general: Liver microsomes are vesicles of endoplasmic reticulum, rich in cytochrome P450 enzymes.)
Description: Metabolic stability in human liver microsomes assessed as intrinsic clearance at 0.5 uM incubated for 30 mins by LC-MS/MS analysis
The nature of data set [5]: in vitro. The note with it: mouse, liver microsomes.
Description: Metabolic stability in mouse liver microsomes assessed as intrinsic clearance at 0.5 uM incubated for 30 mins by LC-MS/MS analysis
Data set [6] can be described thus: in vitro. The note with it: human, MRC5 SV2 cells. This is another data set of the same source.
Description: Selectivity index, ratio of IC50 for human MRC5 SV2 cells to IC50 for Trypanosoma cruzi Tulahuen CL2 amastigotes infected in human MRC5 SV2 cells
Data set [7] is described as follows: in vitro. The note with it: mouse, peritoneal macrophages.
Description: as §2
The subject of data set [8] is Trypanosoma cruzi. Kind of data set: microbe, parasite or virus in culture. The note with it: Tulahuen CL2, MRC-5 SV2, 168 h.
Description: Antitrypanosomal activity against Trypanosoma cruzi Tulahuen CL2 amastigotes infected in human MRC5 SV2 cells incubated for 7 days by chlorophenol red beta-D-galactopyranoside substrate based spectrophotometric assay
Data set [9] relates to Trypanosoma brucei. The data set is described as follows: microbe, parasite or virus in culture. The note with it: Squib 427, 72 h.
Description: Antitrypanosomal activity against Trypanosoma brucei Squib 427 assessed as reduction in parasite growth incubated for 72 hrs by resazurin dye based fluorimetric analysis
In data set [10] the test system is Trypanosoma brucei rhodesiense. Kind of data set: microbe, parasite or virus in culture. To be noted: STIB900, 72 h.
Description: Antiprotozoal activity against Trypanosoma brucei rhodesiense STIB900 trypomastigotes incubated for 72 hrs by resazurin dye based fluorimetric analysis
For data set [11], the system named is Leishmania infantum. The data set is described as follows: microbe, parasite or virus in culture. To be noted: for IC50: MHOM/MA(BE)/67/ITMAP263, 120 h; for IC90: MHOM/MA(BE)/67/ITMAP263, in Mus musculus, 120 h.
Description: Antileishmanial activity against amastigote stage of Leishmania infantum MHOM/MA(BE)/67/ITMAP263 infected in mouse peritoneal macrophage assessed as parasite growth inhibition incubated for 5 days by Giemsa staining based assay
Data set [12] in a line: physchem. To be noted: buffer, pH 7.4.
Description: Lipophilicity, logD of compound at pH 7.4 by HPLC analysis
Data set [13] is described as follows: in vitro. The note with it: PAMPA. In general terms: In PAMPA a lipid-coated filter parts donor from acceptor wells.
Description: Effective permeability of compound by PAMPA assay

As for `COc1cccc(C(=O)N2CCCC(c3cc4ncccc4[nH]3)C2)c1OC` (stereo not given), the concentration for half-maximal inhibition (IC50) was 32 µM in [1]; 32 µM in [2]; 4.03 µM in data set [8]; 32 µM in data set [9]; 31 µM in [10]; 32 µM in [11]. The concentration for an effect of 90% (IC90) at 72 h in [3] and in [7] was 32 µM in each case. The CLint scaled at 0.5 h, 0.5 µM in data set [4] was 110 mL/min/kg; in data set [5], 2600 mL/min/kg. Moreover, in data set [6], the selectivity ratio worked out at 8. For the same compound, the concentration for an effect of 90% (IC90) was 7.52 µM in data set [8], 32 µM in [9], 32 µM in [10] and 32 µM in data set [11].

Turning to `O=C(NCCc1nc2ncc(Cl)cc2[nH]1)c1ccccc1`, the IC50 in [1], in [2], in data set [8], in [9], in data set [10] and in data set [11] was 64 µM each time. Besides, the IC90 at 72 h in data set [3] and in [7] was 64 µM in each case. The CLint scaled at 0.5 h, 0.5 µM was below 31.7 mL/min/kg in data set [4] and below 95 mL/min/kg in data set [5]. Further, the microsomal CLint at 0.5 h, 0.5 µM in [4] and in data set [5] was below 23 µL/min/mg each time. The logD in data set [12] was determined as 2.49. The compound also gave an apparent permeability coefficient (Papp) in data set [13] of 8.77 ×10⁻⁶ cm/s. Besides, the 90% effect concentration (IC90) in data set [8], in data set [9], in data set [10] and in data set [11] was 64 µM each time.

For `N#Cc1cnc2cc(C3CCCN(C(=O)c4cc(C(F)(F)F)no4)C3)[nH]c2c1` (stereo not given), the IC50 in data set [1] was 64 µM; in data set [2], 45.3 µM; in [8], 64 µM; in data set [9], 64 µM; in data set [10] it was 64 µM; in data set [11] it was 39.2 µM. For the same compound, the figures for the IC90 at 72 h in data set [3] and in [7] were 64 µM and 59.7 µM, respectively. Also, the intrinsic clearance (CLint scaled) at 0.5 h, 0.5 µM in data set [4] lay within 50.5 to 54.2 mL/min/kg; in data set [5], 310 to 555 mL/min/kg. In addition, the microsomal CLint at 0.5 h, 0.5 µM is 32.9 µL/min/mg in [4] and 68.3 to 114 µL/min/mg in data set [5]. In data set [12], this compound came in with a logD of 3.5. The Papp in data set [13] turned out to be 5.51 ×10⁻⁶ cm/s. Besides, the IC90 in data set [8] came out at 64 µM; in [9] it was 64 µM; in [10], 64 µM; in [11], 59 µM.

Regarding `N#Cc1ccc(C(=O)N2CCCC(c3cc4ncccc4[nH]3)C2)cc1` (stereo not given), the IC50 in data set [1] amounted to 64 µM; in [2], 64 µM; in data set [8], 25.6 µM; in data set [9], 64 µM; in data set [10], 64 µM; in [11], 64 µM. The IC90 at 72 h in data set [3] and in [7] was 64 µM in each case. This compound also gave a CLint scaled at 0.5 h, 0.5 µM in data set [4] of 51.5 mL/min/kg. The compound also returned an intrinsic clearance (microsomal CLint) at 0.5 h, 0.5 µM in data set [4] below 23 µL/min/mg. The logD in data set [12] stood at 2.37. Also, the selectivity ratio in [6] came to 2.49. Moreover, the apparent permeability (Papp) in data set [13] was determined as 0.379 ×10⁻⁶ cm/s. Further, the 90% effect concentration (IC90) in data set [8] was 59 µM; in [9], 64 µM; in [10], 64 µM; in [11], 64 µM.

Turning to `O=C(c1cc(C2CC2)on1)N1CCCC(c2cc3ncccc3[nH]2)C1` (stereo not given), the half-inhibitory concentration (IC50) in [1] was 32 µM; in data set [2], 32 µM; in data set [8], 3.92 µM; in [9], 32 µM; in data set [10] it was 25.2 µM; in data set [11], 32 µM. For the same compound, the concentration for an effect of 90% (IC90) at 72 h in data set [3] and in data set [7] was 32 µM each time. The intrinsic clearance (CLint scaled) at 0.5 h, 0.5 µM was 32.7 mL/min/kg in [4] and 1830 mL/min/kg in data set [5]. In addition, in data set [6], the selectivity ratio was found to be 8.15. The IC90 in data set [8] was found to be 7.5 µM; in [9], 32 µM; in [10] it was 32 µM; in data set [11], 32 µM.

Regarding `O=C(CCc1nc2ncc(Cl)cc2[nH]1)Nc1ccccc1`, the IC50 in data set [1], in data set [2], in data set [8], in data set [9], in data set [10] and in data set [11] was 64 µM in each case. For the same compound, the IC90 at 72 h in data set [3] and in data set [7] was 64 µM in each case. Also, the figures for the intrinsic clearance (CLint scaled) at 0.5 h, 0.5 µM in [4] and in [5] were below 33.3 mL/min/kg and 516 mL/min/kg, respectively. Besides, the intrinsic clearance (microsomal CLint) at 0.5 h, 0.5 µM in [4] was below 23 µL/min/mg; in data set [5] it was 120 µL/min/mg. The compound also displayed a logD in [12] of 2.81. Besides, in [13], the Papp was found to be 5.97 ×10⁻⁶ cm/s. The IC90 in data set [8], in data set [9], in data set [10] and in data set [11] was 64 µM throughout.

Take `O=C(c1ccccn1)N1CCCC(c2cc3ncccc3[nH]2)C1` (stereo not given): the IC50 in [1], in data set [2], in data set [8], in data set [9], in [10] and in data set [11] was 64 µM in each case. Besides, the IC90 at 72 h in data set [3] and in data set [7] was 64 µM in each case. The intrinsic metabolic clearance (CLint scaled) at 0.5 h, 0.5 µM in data set [4] is below 25 mL/min/kg; in data set [5], 523 mL/min/kg. For the same compound, the intrinsic metabolic clearance (microsomal CLint) at 0.5 h, 0.5 µM in data set [4] is below 23 µL/min/mg; in data set [5], 164 µL/min/mg. The same compound gave a pH-dependent lipophilicity (logD) in [12] of 1.85. In data set [13], this compound yielded a Papp of 2.33 ×10⁻⁶ cm/s. Also, the IC90 in data set [8], in [9], in data set [10] and in data set [11] was 64 µM each time.

On to `O=C(OCc1ccccc1)N1CCCC(c2cn3cccnc3n2)C1` (stereo not given), for which the IC50 in [1] is 64 µM; in data set [2], 64 µM; in data set [8], 34.5 µM; in data set [9], 64 µM; in data set [10] it was 55.4 µM; in [11], 64 µM. Moreover, the IC90 at 72 h in data set [3] and in [7] was 64 µM in each case. Further, in data set [6], the selectivity ratio is 1.88. Besides, the concentration for an effect of 90% (IC90) in [8], in [9], in data set [10] and in data set [11] was 64 µM throughout.

Consider `CN(CC(O)c1cc2ncccc2n1S(=O)(=O)c1ccccc1)C(=O)c1ccccc1` (stereo not given), for which the IC50 came to 64 µM in data set [1]; 11.3 µM in data set [2]; 64 µM in data set [8]; 64 µM in data set [9]; 59.4 µM in data set [10]; 11.4 µM in [11]. The IC90 at 72 h in [3] worked out at 64 µM; in data set [7], 14.9 µM. The values for the CLint scaled at 0.5 h, 0.5 µM in data set [4] and in [5] were 223 mL/min/kg and 2050 mL/min/kg, respectively. The figures for the intrinsic metabolic clearance (microsomal CLint) at 0.5 h, 0.5 µM in [4] and in data set [5] were 160 µL/min/mg and 498 µL/min/mg, respectively. Moreover, in data set [12], the logD is 3.31. Further, the Papp in [13] is 15.7 ×10⁻⁶ cm/s. Besides, the concentration for an effect of 90% (IC90) was 64 µM in data set [8], 64 µM in [9], 64 µM in data set [10] and 15.1 µM in [11].

As to `COc1ccc2cc(C(=O)N3CCCC(c4cc5ncccc5[nH]4)C3)[nH]c2c1` (stereo not given), the IC50 in data set [1] turned out to be 32 µM; in data set [2] it was 32 µM; in data set [8] it was 4.03 µM; in data set [9], 32 µM; in data set [10] it was 32 µM; in data set [11], 32 µM. In addition, the IC90 at 72 h in [3] and in [7] was 32 µM each time. Moreover, the CLint scaled at 0.5 h, 0.5 µM is 1620 mL/min/kg in data set [4] and 1000 mL/min/kg in [5]. The selectivity ratio in data set [6] is 7.95. Moreover, the IC90 is 7.62 µM in [8], 32 µM in data set [9], 32 µM in data set [10] and 32 µM in data set [11].
